Measured values published in patent US9073895B2 (Boehringer Ingelheim International GmbH, priority 2010, dated 2015).

Experiments:
[1] = target: T1, recombinant human FLAP protein (Homo sapiens, UniProt P20292); experiment: FLAP binding assay (SPA, displacement of [125I]L-691,831); conditions: membranes of sf9 cells expressing human FLAP, [125I]L-691,831 probe; read-out: hFLAP binding IC50
T1 construct: made in house; host or cells: Sf9 insect cells (membrane fraction, 100,000 x g pellet)
T1 sequence (P20292 1-161): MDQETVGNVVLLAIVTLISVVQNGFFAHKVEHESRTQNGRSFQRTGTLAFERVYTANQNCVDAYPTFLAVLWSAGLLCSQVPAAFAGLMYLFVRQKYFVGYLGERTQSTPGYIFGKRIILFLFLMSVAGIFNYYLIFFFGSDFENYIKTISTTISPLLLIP
Procedure: Compounds are assessed for the ability to bind to FLAP in a binding assay that measures compound-specific displacement of an iodinated (^125I) FLAP inhibitor via a Scintillation Proximity Assay format (adapted from S. Charleson et al., Mol. Pharmacol., 1992, 41, 873-879).
Cell pellets produced from sf9 insect cells expressing recombinant human FLAP protein are resuspended in buffer A [15 mM Tris-HCl (pH 7.5), 2 mM MgCl2, 0.3 mM EDTA, 1 mM PMSF]. The cells are lysed with a Dounce homogenizer and the material is centrifuged at 10,000×g for 10 minutes. The supernatant is then collected and centrifuged at 100,000×g for 60 minutes. To prepare membrane protein for an assay, an aliquot of the 100,000×g pellet is resuspended in 1 ml of buffer A, Dounce homogenized, and finally subjected to polytron mixing (30 seconds). Membrane protein (25 μl, 5 μg) is mixed with WGA SPA beads (Amersham) and stirred for 1 h. To an assay plate (Perkin Elmer FlexiPlate) is added 25 μl of test compound prepared in Binding buffer [100 mM Tris (pH 7.5), 140 mM NaCl, 5% glycerol, 2 mM EDTA, 0.5 mM TCEP, 0.05% Tween 20], 25 μl of [^125I]L-691,831 (an iodinated analog of MK-591, Charleson et al. Mol. Pharmacol., 41, 873-879, 1992) and finally 50 μl of the bead/protein mixture. (final concentrations: beads, 200 μg/well; protein, 5μg/well; [^125I] probe, 0 08 nM/well(17 nCi/well). The plates are shaken for 2 h before reading on a Microbeta plate reader. Non-specific binding is determined by the addition of 10 μM cold L-691,831 compound.

[2] = system: synthesis of LTB4 in human whole blood; experiment: Human whole blood LTB4 production inhibition assay; format: cell-based; conditions: heparinized human whole blood, calcimycin 20 μM, plasma LTB4; read-out: HuWB IC50
Procedure: Compounds are additionally tested in a human whole blood assay to determine their ability to inhibit the synthesis of LTB4 in a cellular system. Compounds are combined with heparinized human whole blood and incubated for 15 minutes at 37° C. Calcimycin (20 μM final, prepared in phosphate-buffered saline, pH 7.4) is then added and the mixture is incubated for another 30 minutes at 37° C. The samples are centrifuged for 5 min at low speed (1500×g) and the plasma layer is removed. Plasma LTB4 concentrations are then measured using an antibody-based homogenous time-resolved fluorescence method (CisBio, Bedford, Mass.).

Row | Structure (SMILES) | IC50 [1] | IC50 [2]
1 | Nc1ncc(-c2ccc(C3(C(=O)Nc4ccc(Oc5ccccc5)cc4)CCOCC3)cc2)cn1 [Example 1, 4-[4-(2-aminopyrimidin-5-yl)phenyl]-N-(4-phenoxyphenyl)tetrahydro-2H-pyran-4-carboxamide] | 16 nM | 461 nM
2 | COc1ccc(NC(=O)C2(c3ccc(-c4cnc(N)nc4)cc3)CCOCC2)cn1 [Example 2, 4-[4-(2-aminopyrimidin-5-yl)phenyl]-N-(6-methoxypyridin-3-yl)tetrahydro-2H-pyran-4-carboxamide] | 210 nM | 1370 nM
3 | N#Cc1ccc(NC(=O)C2(c3ccc(-c4cnc(N)nc4)cc3)CCOCC2)cc1Cl [Example 3, 4-[4-(2-aminopyrimidin-5-yl)phenyl]-N-(3-chloro-4-cyanophenyl)tetrahydro-2H-pyran-4-carboxamide] | 11.2 nM | 328 nM
4 | Cc1nnnn1-c1ccc(NC(=O)C2(c3ccc(-c4cnc(N)nc4)cc3)CCOCC2)cc1 [Example 4, 4-[4-(2-aminopyrimidin-5-yl)phenyl]-N-[4-(5-methyl-1H-tetrazol-1-yl)phenyl]tetrahydro-2H-pyran-4-carboxamide] | 38.5 nM | 808 nM
5 | Nc1ncc(-c2ccc(C3(C(=O)Nc4ccc(C5CCCCC5)cc4)CCOCC3)cc2)cn1 [Example 5, 4-[4-(2-aminopyrimidin-5-yl)phenyl]-N-(4-cyclohexylphenyl)tetrahydro-2H-pyran-4-carboxamide] | 101 nM | 2970 nM
6 | COc1ccc2nc(NC(=O)C3(c4ccc(-c5cnc(N)nc5)cc4)CCOCC3)sc2c1 [Example 7, 4-[4-(2-aminopyrimidin-5-yl)phenyl]-N-(6-methoxy-1,3-benzothiazol-2-yl)tetrahydro-2H-pyran-4-carboxamide] | 10.7 nM | 2660 nM
7 | Cc1ccc2nc(NC(=O)C3(c4ccc(-c5cnc(N)nc5)cc4)CCOCC3)sc2c1 [Example 8, 4-[4-(2-aminopyrimidin-5-yl)phenyl]-N-(6-methyl-1,3-benzothiazol-2-yl)tetrahydro-2H-pyran-4-carboxamide] | 25 nM | 3560 nM
8 | Nc1ncc(-c2ccc(C3(C(=O)Nc4cnc5ccccc5c4)CCOCC3)cc2)cn1 [Example 11, 4-[4-(2-aminopyrimidin-5-yl)phenyl]-N-(quinolin-3-yl)tetrahydro-2H-pyran-4-carboxamide] | 21.9 nM | > 3000 nM
9 | Nc1ncc(-c2ccc(C3(C(=O)Nc4ccc5c(c4)OCCO5)CCOCC3)cc2)cn1 [Example 12, 4-[4-(2-aminopyrimidin-5-yl)phenyl]-N-(2,3-dihydro-1,4-benzodioxin-6-yl)tetrahydro-2H-pyran-4-carboxamide] | 68 nM | 2220 nM
10 | Nc1ncc(-c2ccc(C3(C(=O)Nc4ccc(Cl)c(Cl)c4)CCOCC3)cc2)cn1 [Example 13, 4-[4-(2-aminopyrimidin-5-yl)phenyl]-N-(3,4-dichlorophenyl)tetrahydro-2H-pyran-4-carboxamide] | 16.7 nM | ≥ 3000 nM
11 | COc1ccc(NC(=O)C2(c3ccc(-c4cnc(N)nc4)cc3)CCOCC2)cc1Cl [Example 14, 4-[4-(2-aminopyrimidin-5-yl)phenyl]-N-(3-chloro-4-methoxyphenyl)tetrahydro-2H-pyran-4-carboxamide] | 8.95 nM | 2250 nM
12 | Nc1ncc(-c2ccc(C3(C(=O)Nc4cc(Cl)cc(Cl)c4)CCOCC3)cc2)cn1 [Example 15, 4-[4-(2-aminopyrimidin-5-yl)phenyl]-N-(3,5-dichlorophenyl)tetrahydro-2H-pyran-4-carboxamide] | 23.5 nM | > 3000 nM
13 | Nc1ncc(-c2ccc(C3(C(=O)Nc4ccccc4-c4ccccc4)CCC3)cc2)cn1 [Example 202, 1-[4-(2-aminopyrimidin-5-yl)phenyl]-N-(biphenyl-2-yl)cyclobutanecarboxamide] | 56.5 nM | 
14 | CC(=O)Nc1ccc(-c2ccc(C3(C(=O)Nc4ccc(-c5csc(C)n5)cn4)CCOCC3)cc2)cn1 [Example 206, 4-{4-[6-(acetylamino)pyridin-3-yl]phenyl}-N-[5-(2-methyl-1,3-thiazol-4-yl)pyridin-2-yl]tetrahydro-2H-pyran-4-carboxamide] | 270 nM | 
15 | COCCNc1ncc(-c2ccc(C3(C(=O)Nc4ccc(-c5csc(C)n5)cn4)CCOCC3)cc2)cn1 [Example 207, 4-(4-{2-[(2-methoxyethyl)amino]pyrimidin-5-yl}phenyl)-N-[5-(2-methyl-1,3-thiazol-4-yl)pyridin-2-yl]tetrahydro-2H-pyran-4-carboxamide] | 230 nM | 
16 | Cc1nc(NC(=O)C2(c3ccc(-c4cnc(N)nc4)cc3)CCC2)sc1C [Example 209, 1-[4-(2-aminopyrimidin-5-yl)phenyl]-N-(4,5-dimethyl-1,3-thiazol-2-yl)cyclobutanecarboxamide] | 13 nM | 
17 | Cc1cnc(NC(=O)C2(c3ccc(-c4cnc(N)nc4)cc3)CCC2)s1 [Example 211, 1-[4-(2-aminopyrimidin-5-yl)phenyl]-N-(5-methyl-1,3-thiazol-2-yl)cyclobutanecarboxamide] | 23.5 nM | 
18 | Cc1cc(NC(=O)C2(c3ccc(-c4cnc(N)nc4)cc3)CCC2)nc(C)n1 [Example 212, 1-[4-(2-aminopyrimidin-5-yl)phenyl]-N-(2,6-dimethylpyrimidin-4-yl)cyclobutanecarboxamide] | 15 nM | 
19 | Nc1ncc(-c2ccc(C3(C(=O)Nc4ccnc(O)c4)CCC3)cc2)cn1 [Example 220, 1-[4-(2-aminopyrimidin-5-yl)phenyl]-N-(2-hydroxypyridin-4-yl)cyclobutanecarboxamide] | 470 nM | 
20 | CC(C)C(C)(C(=O)Nc1ccncc1)c1ccc(-c2ccc(NCCO)nc2)cc1 (stereo not shown) [Example 226, 2-(4-{6-[(2-hydroxyethyl)amino]pyridin-3-yl}phenyl)-2,3-dimethyl-N-(pyridin-4-yl)butanamide] | 250 nM | 
21 | NC(=O)c1ccc(NC(=O)C2(c3ccc(-c4cnc(N)nc4)cc3)CCC2)cn1 [Example 240, 5-[({1-[4-(2-aminopyrimidin-5-yl)phenyl]cyclobutyl}carbonyl)amino]pyridine-2-carboxamide] | 4.4 nM | 
22 | Nc1ncc(-c2ccc(C3(C(=O)Nc4nc(-c5ccccc5)ns4)CCC3)cc2)cn1 [Example 242, 1-[4-(2-aminopyrimidin-5-yl)phenyl]-N-(3-phenyl-1,2,4-thiadiazol-5-yl)cyclobutanecarboxamide] | 3.95 nM | 
23 | Nc1ncc(-c2ccc(C3(C(=O)Nc4n[nH]c(-c5ccccc5)n4)CCC3)cc2)cn1 [Example 243, 1-[4-(2-aminopyrimidin-5-yl)phenyl]-N-(5-phenyl-1H-1,2,4-triazol-3-yl)cyclobutanecarboxamide] | 22 nM | 
24 | COc1ccc(-c2nc(NC(=O)C3(c4ccc(-c5cnc(N)nc5)cc4)CCC3)n[nH]2)cc1 [Example 244, 1-[4-(2-aminopyrimidin-5-yl)phenyl]-N-[5-(4-methoxyphenyl)-1H-1,2,4-triazol-3-yl]cyclobutanecarboxamide] | 10.8 nM | 
25 | Nc1ncc(-c2ccc(C3(C(=O)Nc4ccc(N5CCOCC5)cc4)CCC3)cc2)cn1 [Example 246, 1-[4-(2-aminopyrimidin-5-yl)phenyl]-N-[4-(morpholin-4-yl)phenyl]cyclobutanecarboxamide] | 34 nM | 
26 | Cc1nc(-c2ccc(NC(=O)C(c3ccc(-c4cnc(N)nc4)cc3)C3CCCC3)nc2)cs1 (stereo not shown) [Example 248, 2-[4-(2-aminopyrimidin-5-yl)phenyl]-2-cyclopentyl-N-[5-(2-methyl-1,3-thiazol-4-yl)pyridin-2-yl]acetamide] | 240 nM | 
27 | Cc1ccc(NC(=O)C2(c3ccc(-c4cnc(N)nc4)cc3)CCC2)cn1 [Example 249, 1-[4-(2-aminopyrimidin-5-yl)phenyl]-N-(6-methylpyridin-3-yl)cyclobutanecarboxamide] | 22.5 nM | 
28 | Cc1nc(-c2ccc(NC(=O)C3(c4ccc(-c5cnc(N)nc5)cc4)CC3)nc2)cs1 [Example 251, 1-[4-(2-aminopyrimidin-5-yl)phenyl]-N-[5-(2-methyl-1,3-thiazol-4-yl)pyridin-2-yl]cyclopropanecarboxamide] | 16 nM | 
